Laboratory results as given in patent publication US7807678B2, “Peptidomimetics of biologically active metallopeptides” (Palatin Technologies, Inc., priority 2001, dated 2010).
Non-standard residues stand in square brackets, D forms with d. Residues, ends and D or L forms follow the SMILES beside them. *: point of attachment. Hyp = O=C(O)[C@@H]1C[C@@H](O)CN1; NH(CH2)3NH2 = NCCCN*; Bn = c1ccc(C*)cc1

Columns and labels:
[1] = biological target: T1, MC1-R (B-16 mouse melanoma cells) (Mus musculus, UniProt Q01727); assay: Competitive inhibition binding assay, 125I-NDP-α-MSH, MC1-R; conditions: for Inhibition at 1 μM MC1-R: 1 μM compound, inhibition of 125I-NDP-α-MSH binding, mean of triplicates, results less than 0% reported as 0%
T1 construct: B-16 mouse melanoma cells (containing MC1-R); endogenous in cells; host or cells: B-16 mouse melanoma cells
Description: (§1) The competitive inhibition binding assay was conducted using membranes prepared from hMC3-R, hMC4-R, hMC5-R, and B-16 mouse melanoma cells (containing MC1-R) using 0.4 nM ^125I-NDP-α-MSH (New England Nuclear, Boston, Mass., USA) in 50 mM HEPES buffer containing 1 mM MgCl2, 2 mM CaCl2, and 5 mM KCl, at pH 7.2. The assay tube also contained a chosen concentration of the test peptidomimetic of this invention, generally 1 μM, for determining its efficacy in inhibiting the binding of ^125I-NDP-α-MSH to its receptor.
(§2) Incubation was for 90 minutes at room temperature, after which the assay mixture was filtered and the membranes washed three times with ice cold buffer. The filter was dried and counted in a gamma counter for remaining radioactivity bound to the membranes. 100% specific binding was defined as the difference in radioactivity (cpm) bound to cell membranes in the absence and presence of 1 μM α-MSH. […] Each assay was conducted in triplicate and the actual mean values are described.

MC3-R = MC3-R (Homo sapiens, UniProt P41968); assay: Competitive inhibition binding assay, 125I-NDP-α-MSH, MC3-R; set-up: expressed in transfected cells; conditions: for Inhibition at 1 μM MC3-R: 1 μM compound, inhibition of 125I-NDP-α-MSH binding, mean of triplicates, results less than 0% reported as 0%
Description: as §1, §2

MC4-R = MC4-R (Homo sapiens, UniProt P32245); assay: Competitive inhibition binding assay, 125I-NDP-α-MSH, MC4-R; set-up: expressed in transfected cells; conditions: for Inhibition at 1 μM MC4-R: 1 μM compound, inhibition of 125I-NDP-α-MSH binding, mean of triplicates, results less than 0% reported as 0%
Description: as §1, §2

MC5-R = MC5-R (Homo sapiens, UniProt P33032); assay: Competitive inhibition binding assay, 125I-NDP-α-MSH, MC5-R; set-up: expressed in transfected cells; conditions: for Inhibition at 1 μM MC5-R: 1 μM compound, inhibition of 125I-NDP-α-MSH binding, mean of triplicates, results less than 0% reported as 0%
Description: as §1, §2

Sequence of MC3-R (P41968 whole entry): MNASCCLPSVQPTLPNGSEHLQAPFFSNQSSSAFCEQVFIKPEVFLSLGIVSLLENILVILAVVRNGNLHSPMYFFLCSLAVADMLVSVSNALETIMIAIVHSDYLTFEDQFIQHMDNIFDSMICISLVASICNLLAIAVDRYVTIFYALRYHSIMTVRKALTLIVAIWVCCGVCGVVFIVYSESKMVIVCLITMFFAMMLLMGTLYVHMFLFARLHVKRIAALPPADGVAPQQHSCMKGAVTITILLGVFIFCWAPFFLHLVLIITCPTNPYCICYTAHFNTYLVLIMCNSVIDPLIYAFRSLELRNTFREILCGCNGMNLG
Sequence of MC5-R (P33032 whole entry): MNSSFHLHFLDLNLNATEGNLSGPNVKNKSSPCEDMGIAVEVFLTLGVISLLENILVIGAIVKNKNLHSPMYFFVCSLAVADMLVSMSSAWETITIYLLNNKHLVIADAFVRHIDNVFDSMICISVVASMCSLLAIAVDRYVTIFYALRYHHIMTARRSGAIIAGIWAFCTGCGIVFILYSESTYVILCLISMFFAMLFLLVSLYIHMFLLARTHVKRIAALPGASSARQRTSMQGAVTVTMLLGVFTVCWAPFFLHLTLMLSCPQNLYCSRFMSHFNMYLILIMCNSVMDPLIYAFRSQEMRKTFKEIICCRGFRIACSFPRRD
T1 sequence (Q01727 whole entry): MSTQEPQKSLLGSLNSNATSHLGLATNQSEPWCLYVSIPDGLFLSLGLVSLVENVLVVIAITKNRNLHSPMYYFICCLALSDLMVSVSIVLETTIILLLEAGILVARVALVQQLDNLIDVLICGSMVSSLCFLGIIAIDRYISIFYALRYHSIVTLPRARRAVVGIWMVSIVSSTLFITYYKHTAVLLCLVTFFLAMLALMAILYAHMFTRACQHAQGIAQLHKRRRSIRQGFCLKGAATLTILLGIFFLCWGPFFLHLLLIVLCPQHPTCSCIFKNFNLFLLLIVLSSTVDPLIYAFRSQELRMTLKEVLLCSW
Sequence of MC4-R (P32245 whole entry): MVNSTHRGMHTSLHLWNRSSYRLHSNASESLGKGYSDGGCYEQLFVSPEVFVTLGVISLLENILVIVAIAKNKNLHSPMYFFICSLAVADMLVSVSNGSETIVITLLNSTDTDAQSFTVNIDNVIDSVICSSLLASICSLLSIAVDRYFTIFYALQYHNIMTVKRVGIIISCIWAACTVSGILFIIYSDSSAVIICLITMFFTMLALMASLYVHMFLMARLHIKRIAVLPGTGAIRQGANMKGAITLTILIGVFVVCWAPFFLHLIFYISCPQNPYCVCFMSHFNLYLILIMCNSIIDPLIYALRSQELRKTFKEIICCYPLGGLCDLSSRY

| Structure (SMILES) | Inhibition at 1 μM MC1-R [1] [%] | Inhibition at 1 μM MC3-R (MC3-R) [%] | Inhibition at 1 μM MC4-R (MC4-R) [%] | Inhibition at 1 μM MC5-R (MC5-R) [%] | inhibition at 1 µM [1] [%] | inhibition at 1 µM (MC3-R) [%] | inhibition at 1 µM (MC4-R) [%] | inhibition at 1 µM (MC5-R) [%] |
| --- | --- | --- | --- | --- | --- | --- | --- | --- |
| N=C(N)NCCC[C@H]1C(=O)N(CCc2c[nH]c3ccccc23)CCN1C(=O)[C@@H](Cc1ccccc1Cl)NC(=O)[C@@H]1C[C@@H](OCc2ccccc2)CN1 [Example 19] | 91 | 59 | 99 | 85 |  |  |  |  |
| NCCCCC1C(=O)N2C(COc3ccccc3)CCC2N1C(=O)C(N)Cc1ccc(Cl)cc1 (stereo not shown) [Example 103] | 9 | 0 | 0 | 0 |  |  |  |  |
| NCCCNC(=O)[C@@H]1C[C@@H](OCc2ccccc2)CN1C(=O)[C@@H](Cc1ccccc1)NC(=O)[C@H](Cc1cnc[nH]1)NC(=O)Cc1ccc2ccccc2c1 [Example 141] | 84 | 4 | 0 | 19 |  |  |  |  |
| NCCCC[C@H]1C(=O)N2C(CC[C@@H]2COc2ccc3ccccc3c2)N1C(=O)[C@@H](Cc1ccccc1Cl)NC(=O)[C@@H](N)C1Cc2ccccc2C1 (stereo partly shown) [Example 90] | 10 | 0 | 12 | 46 |  |  |  |  |
| CC(=O)NCCCC1C(=O)N(CCc2ccc3ccccc3c2)CCN1C(=O)C(Cc1ccc(Cl)cc1Cl)NC(=O)C(N)COCc1ccccc1 (stereo not shown) [Example 42] | 13 | 10 | 61 | 30 |  |  |  |  |
| NC(=O)NCC[C@H]1C(=O)N(CCc2ccc3ccccc3c2)CCN1C(=O)[C@H](N)Cc1ccc(Cl)cc1Cl [Example 57] | 11 | 0 | 9 | 5 |  |  |  |  |
| CCCCCCC(=O)N[C@@H](COCc1ccccc1)C(=O)N[C@H](Cc1ccccc1Cl)C(=O)N1C2CC[C@H](COc3ccc4ccccc4c3)N2C(=O)[C@@H]1CCCCN (stereo partly shown) [Example 86] | 71 | 30 | 82 | 47 |  |  |  |  |
| [2H]N[C@@H](Cc1ccccc1)C(=O)N1C[C@H](OCc2ccccc2)C[C@H]1C(=O)NCCCN [Example 137] |  |  |  |  | 23 | 0 | 0 | 0 |
| CCCCCCC(=O)N[C@@H](Cc1cnc[nH]1)C(=O)N[C@H](Cc1ccccc1)C(=O)N1C[C@H](OCc2ccccc2)C[C@H]1C(=O)NCCCN [Example 155] | 71 | 5 | 0 | 7 |  |  |  |  |
| CCCCCCC(=O)NC(COCc1ccccc1)C(=O)NC(Cc1ccc2ccccc2c1)C(=O)N1CC2CC(Oc3ccc4ccccc4c3)CN2C(=O)C1CCCCN (stereo not shown) [Example 178] | 33 | 0 | 0 | 0 |  |  |  |  |
| NCCCC[C@H]1C(=O)N2C(CC[C@@H]2COc2ccc3ccccc3c2)N1C(=O)[C@@H](Cc1ccccc1Cl)NCc1ccccc1 (stereo partly shown) [Example 102] | 11 | 13 | 16 | 14 |  |  |  |  |
| NCCCC[C@H]1C(=O)N2C(CC[C@@H]2COc2ccc3ccccc3c2)N1C(=O)[C@@H](Cc1ccccc1Cl)NC(=O)[C@H]1NCCc2ccccc21 (stereo partly shown) [Example 87] | 66 | 8 | 57 | 46 |  |  |  |  |
| N=C(N)c1ccc(C[C@H]2C(=O)N(CCc3ccc4ccccc4c3)CCN2C(=O)[C@H](N)Cc2ccc(Cl)cc2Cl)cc1 [Example 128] | 5 | 0 | 31 | 21 |  |  |  |  |
| N=C(N)NCCC[C@H]1C(=O)N(CCc2ccc3ccccc3c2)CCN1C(=O)COc1ccc(Cl)cc1Cl [Example 77] |  |  |  |  | 15 | 0 | 24 | 20 |
| NCCCC[C@H]1C(=O)N(CCOc2ccc3ccccc3c2)CCN1C(=O)[C@@H](Cc1ccc(Cl)cc1)NC(=O)[C@@H](N)COCc1ccccc1 [Example 29] | 64 | 21 | 64 | 72 |  |  |  |  |
| N[C@H](Cc1ccc(Cl)cc1Cl)C(=O)N1CCN(CCc2ccc3ccccc3c2)C(=O)[C@@H]1CCCn1cncn1 [Example 58] | 7 | 0 | 0 | 3 |  |  |  |  |

| Structure (SMILES) | Inhibition at 1 μM MC1-R [1] [%] | Inhibition at 1 μM MC3-R (MC3-R) [%] | Inhibition at 1 μM MC4-R (MC4-R) [%] | Inhibition at 1 μM MC5-R (MC5-R) [%] | inhibition at 1 µM [1] [%] | inhibition at 1 µM (MC3-R) [%] | inhibition at 1 µM (MC4-R) [%] | inhibition at 1 µM (MC5-R) [%] |
| --- | --- | --- | --- | --- | --- | --- | --- | --- |
| NCCCNC(=O)[C@@H]1C[C@@H](OCc2ccccc2)CN1C(=O)[C@@H](Cc1ccccc1)NC(=O)[C@@H](N)Cc1ccc2ccccc2c1 [Example 164] | 0 | 0 | 13 | 1 |  |  |  |  |
| C[C@H](N)C(=O)N[C@@H](Cc1cnc[nH]1)C(=O)N[C@H](Cc1ccccc1)C(=O)N1C[C@H](OCc2ccccc2)C[C@H]1C(=O)NCCCN [Example 135] (H-AH[dF][Hyp](Bn)-{NH(CH2)3NH2}) | 93 | 0 | 0 | 0 |  |  |  |  |
| NCCCCCCC(=O)N[C@@H](COCc1ccccc1)C(=O)N[C@H](Cc1ccc(Cl)cc1)C(=O)N1C2CC[C@H](COc3ccc4c(c3)CCCC4)N2C(=O)[C@@H]1CCCCN (stereo partly shown) [Example 110] | 97 | 59 | 96 | 84 |  |  |  |  |
| N=C(N)NCCCC1C(=O)N(CCc2c[nH]c3ccccc23)CCN1C(=O)C(Cc1ccccc1Cl)NC(=O)C1CCC(c2ccccc2)N1 (stereo not shown) [Example 21] | 62 | 22 | 83 | 19 |  |  |  |  |
| CCCCCCC(=O)N[C@@H](Cc1cnc[nH]1)C(=O)N[C@H](Cc1ccccc1)C(=O)N1C[C@H](OCc2ccccc2)C[C@H]1C(=O)NCCCNC(=N)N [Example 154] | 92 | 7 | 1 | 1 |  |  |  |  |
| NCCCC[C@H]1C(=O)N2C(CC[C@@H]2COc2ccc3ccccc3c2)N1C(=O)[C@@H](Cc1ccccc1Cl)NC(=O)[C@@H]1C[C@@H](OCc2ccccc2)CN1 (stereo partly shown) [Example 84] | 44 | 0 | 74 | 37 |  |  |  |  |
| NCCCC[C@H]1C(=O)N(CCc2ccc3ccccc3c2)CCN1C(=O)[C@H](N)Cc1ccc2ccccc2c1 [Example 59] | 26 | 14 | 72 | 30 |  |  |  |  |
| NCCCC[C@H]1C(=O)N2C(CC[C@@H]2COc2ccc3ccccc3c2)N1C(=O)[C@@H](Cc1ccccc1Cl)NC(=O)[C@@H]1C[C@H](Oc2ccccc2)CN1 (stereo partly shown) [Example 92] | 7 | 0 | 22 | 21 |  |  |  |  |
| NCCCC[C@H]1C(=O)N2C(CC[C@@H]2COc2ccc3c(c2)CCCC3)N1C(=O)[C@@H](Cc1ccc(Cl)cc1)NC(=O)[C@@H]1Cc2ccccc2CN1 (stereo partly shown) [Example 108] | 96 | 19 | 94 | 66 |  |  |  |  |
| N=C(N)NCCC[C@H]1C(=O)N(CCc2c[nH]c3ccccc23)CCN1C(=O)[C@H](N)Cc1ccc(Cl)cc1 [Example 125] | 10 | 28 | 68 | 43 |  |  |  |  |
| CCNC(=N)NCCC[C@H]1C(=O)N(CCc2ccc3ccccc3c2)CCN1C(=O)[C@H](N)Cc1ccc(Cl)cc1Cl [Example 73] | 14 | 35 | 91 | 24 |  |  |  |  |
| NCCCC[C@H]1C(=O)N2C(CC[C@@H]2COc2ccc3ccccc3c2)N1C(=O)[C@@H](Cc1ccccc1Cl)NC(=O)[C@@H]1Cc2ccccc2CN1 (stereo partly shown) [Example 83] | 42 | 2 | 89 | 38 |  |  |  |  |
| NCCCC[C@H]1C(=O)N2C(CC[C@@H]2COc2ccc3ccccc3c2)N1C(=O)[C@@H](Cc1ccccc1Cl)NC(=O)[C@@H]1Cc2ccccc2N1 (stereo partly shown) [Example 95] | 34 | 0 | 47 | 14 |  |  |  |  |
| NCCCC[C@H]1C(=O)N2C(CC[C@@H]2COc2ccc3ccccc3c2)N1C(=O)[C@@H](Cc1ccccc1Cl)NC(=O)[C@@H](N)COCc1ccccc1 (stereo partly shown) [Example 82] | 28 | 0 | 60 | 38 |  |  |  |  |
| NCCC[C@H]1CN(CCc2ccc3ccccc3c2)CCN1C(=O)[C@H](N)Cc1ccc(Cl)cc1Cl [Example 130] | 0 | 33 | 81 | 39 |  |  |  |  |
